Test [1] deals with ACHN. As to the kind of experiment: NCI SRB growth inhibition (single dose 10 µM / five-dose). The class given is cell-based, human. The note with it: Homo sapiens; for inhibition at 10 µM: ACHN (Renal cancer), read-out: GI%; for GI50: ACHN, Renal cancer, five-dose. The protocol: (§1) Screening of cytotoxic activity against a panel of sixty human tumor cell lines The selected compounds by NCI were evaluated for their anticancer activity in a two- stage process. […] Then, the output from the single dose screen is reported as a mean graph. […] Assay protocol. […] For a typical screening experiment, cells are inoculated into 96 well microtiter plates in 100 µL at plating densities ranging from 5000 to 40,000 cells/well depending on the doubling time of individual cell lines. […] After 24 h, two plates of each cell line are fixed in situ with TCA, to represent a measurement of the cell population for each cell line at the time of drug addition (Tz). The experimental drugs are solubilized in dimethyl sulfoxide at 400-fold the desired final maximum test concentration and stored frozen prior to use. At the time of drug addition, an aliquot of frozen concentrate is thawed and diluted to twice the desired final maximum test concentration with complete medium containing 50 µg/mL gentamicin. Additional four, 10-fold or ½ log serial dilutions are made to provide a total of five drug concentrations plus control. Aliquots of 100 mL of these different drug dilutions are added to the appropriate microtiter wells already containing […] of medium, resulting in the required final drug concentrations. […] For adherent cells, the assay is terminated by the addition of cold TCA. […] The supernatant is discarded, and the plates are washed five times with tap water and air dried. Sulforhodamine B (SRB) solution ([…]) at 0.4% (w/v) in 1% acetic acid is added to each well, and plates are incubated for 10 min at room temperature. After staining, unbound dye is removed by washing five times with 1% acetic acid and the plates are air dried. […] Using the seven absorbance measurements [time zero, (Tz), control growth, (C), and test growth in the presence of drug at the five concentration levels (Ti)], the percentage growth is calculated at each of the drug concentrations levels. Percentage growth inhibition is calculated as: [(Ti Tz)/(C–Tz)] x 100 for concentrations for which Ti>/=Tz and [(Ti-Tz)/Tz] x 100 for concentrations for which Ti < Tz. Three dose response parameters are calculated for each experimental agent. […] The drug concentration resulting in total growth inhibition (TGI) is calculated from Ti = Tz. […] Values are calculated for each of these three parameters if the level of activity is reached; however, if the effect is not reached or is exceeded, the value for that parameter is expressed as greater or less than the maximum or minimum concentration tested.

Test [2] deals with MOLT-4. The test is described as above. In kind it is cell-based, human. Conditions: Homo sapiens; for inhibition at 10 µM: MOLT-4 (Leukemia), read-out: GI%; for GI50: MOLT-4, Leukemia, five-dose. The method, then:
as §1

Test [3] concerns NCI-H226. Described as above. The class given is cell-based, human. Conditions: Homo sapiens; for inhibition at 10 µM: NCI-H226 (Non-small cell lung cancer), read-out: GI%; for GI50: NCI-H226, Non-small cell lung cancer, five-dose. The method, then:
as §1

The subject of test [4] is M14. Described as above. The class given is cell-based, human. Conditions: Homo sapiens; for inhibition at 10 µM: M14 (Melanoma), read-out: GI%; for GI50: M14, Melanoma, five-dose. The method, then:
as §1

For test [5], the system named is HCT-116. The test is described as above. The note with it: Homo sapiens, HCT-116; for inhibition at 10 µM: read-out: GI%. The class given is cell-based, human. The method, then: as §1
Test [6] relates to U251. Described as above. In kind it is cell-based, human. Conditions: Homo sapiens, U-251; for inhibition at 10 µM: U251 (CNS cancer), read-out: GI%; for GI50: U251, CNS cancer, five-dose. The protocol: as §1
Test [7] relates to SN12C. The description is as above. The class given is cell-based, human. The note with it: Homo sapiens; for inhibition at 10 µM: SN12C (Renal cancer), read-out: GI%; for GI50: SN12C, Renal cancer, five-dose. The protocol: as §1
In test [8] the test system is HOP-92. The test is described as above. In kind it is cell-based, human. The note with it: Homo sapiens; for inhibition at 10 µM: HOP-92 (Non-small cell lung cancer), read-out: GI%. The protocol:
as §1

For test [9], the system named is OVCAR-4. The test is described as above. In kind it is cell-based, human. Conditions: Homo sapiens; for inhibition at 10 µM: OVCAR-4 (Ovarian cancer), read-out: GI%; for GI50: OVCAR-4, Ovarian cancer, five-dose. The protocol: as §1
For test [10], the system named is NCI-H322M. The test is described as above. In kind it is cell-based, human. Conditions: Homo sapiens; for inhibition at 10 µM: NCI-H322M (Non-small cell lung cancer), read-out: GI%; for GI50: NCI-H322M, Non-small cell lung cancer, five-dose. The method, then: as §1
Test [11] deals with UO-31. The description is as above. The note with it: Homo sapiens; for inhibition at 10 µM: UO-31 (Renal cancer), read-out: GI%; for GI50: UO-31, Renal cancer, five-dose. The class given is cell-based, human. The protocol: as §1
Test [12] concerns the target T1, VEGFR-2 (Homo sapiens, UniProt P35968).
T1 construct: purchased BPS Biosciences 40325
As to the kind of experiment: VEGFR-2 kinase assay kit (BPS), Kinase-Glo Max luminescence. The note with it: VEGFR-2, single dose 10 µM, duplicate, mean ± SD. In kind it is biochemical. The method, then: 2. Biochemical kinase assay procedure
The inhibitory activity against different kinases was determined using kinase kits […]
from BPS Biosciences and kinase-Glo Max luminescence kinase assay kit (Promega).
The assay was carried out according to the protocol provided by the manufacturer. A stock solution of the synthesized derivatives in 100% DMSO was prepared. Subsequently, the compounds were diluted to 10% DMSO.
A master mixture was prepared according to the number of wells. For VEGFR-2 and FGFR-1 biochemical assays each well include 6 μl of 5x Kinase Buffer 1 + 1 μl of 500 μM ATP + 1 μl of PTK Substrate (Poly-Glu,Tyr 4:1) (10 mg/ml) + 17 μl of distilled water. For BRAF assay each well include 6 μl of 5x Kinase Buffer 1 + 1 μl of ATP (500 μM) + 10 μl of 5X Raf substrate + 8 μl of distilled water. 1x Kinase buffer 1 was prepared by mixing 600 μl of 5x Kinase Buffer 1 with 2400 μl water to give 3 mL. Kinases were thawed on ice and were diluted with 1x Kinase Buffer 1.
To start the biochemical reaction, 25 µL of the master mixture was added to each well in 96 well plate. 5 µL of 10% DMSO was added to positive control wells and blank wells. 5 µL of diluted inhibitor was added to each well labelled with the test inhibitor so that the final concentration of DMSO is 1% in all reactions. Then 20 µL of (1 ng / μl) in case of VEGFR-2 and FGFR-1 or (2.5 ng/μl) in case of BRAF in 1x kinase buffer was added to positive control wells and wells labelled with the inhibitor, while 20 µL 1x kinase buffer 1 was added to the […]
The plate was incubated at 30 °C for 45 min. Subsequently, 50 μl of Kinase-Glo Max luminescence reagent was added to each well and the plate was covered with aluminum foil and incubated at room temperature 15 min. Finally, the luminescence was recorded using multimode microplate reader. Kinase activity assays were performed in duplicate at each […]
The luminescence data were analyzed as follows. The difference between luminescence intensities in the absence of kinase (Lut) and in the presence of kinase (Luc) was defined as 100 % activity (Lut – Luc). Using luminescence signal (Lu) in the presence of the compound, % activity was calculated as: % activity = {(Lut - Lu)/(Lut - Luc)}×100%. The […]
concentration of the test compounds required to reduce the kinase activity by 50% was determined from dose-response curves and recorded as their IC50. […]

For test [13], the system named is NCI panel of 60 tumor cell lines. Kind of test: NCI SRB growth inhibition, whole panel mean (single dose 10 µM / five-dose). Conditions: Homo sapiens; for GI50: mean over NCI cancer cell lines, five-dose. In kind it is cell-based, human. The protocol: as §1
Setting [14] is: mean over NCI 60 cell lines, > 100% = lethal effect, read-out: mean growth inhibition % (GI%).
[15] abbreviates: mean over NCI panel of 60 tumor cell lines, read-out: Mean growth inhibition %.

Read-outs that look alike come from different tables or passages of the source. Where only a bound is given, the exact number is not on record here.

T1 sequence (P35968 20-1356): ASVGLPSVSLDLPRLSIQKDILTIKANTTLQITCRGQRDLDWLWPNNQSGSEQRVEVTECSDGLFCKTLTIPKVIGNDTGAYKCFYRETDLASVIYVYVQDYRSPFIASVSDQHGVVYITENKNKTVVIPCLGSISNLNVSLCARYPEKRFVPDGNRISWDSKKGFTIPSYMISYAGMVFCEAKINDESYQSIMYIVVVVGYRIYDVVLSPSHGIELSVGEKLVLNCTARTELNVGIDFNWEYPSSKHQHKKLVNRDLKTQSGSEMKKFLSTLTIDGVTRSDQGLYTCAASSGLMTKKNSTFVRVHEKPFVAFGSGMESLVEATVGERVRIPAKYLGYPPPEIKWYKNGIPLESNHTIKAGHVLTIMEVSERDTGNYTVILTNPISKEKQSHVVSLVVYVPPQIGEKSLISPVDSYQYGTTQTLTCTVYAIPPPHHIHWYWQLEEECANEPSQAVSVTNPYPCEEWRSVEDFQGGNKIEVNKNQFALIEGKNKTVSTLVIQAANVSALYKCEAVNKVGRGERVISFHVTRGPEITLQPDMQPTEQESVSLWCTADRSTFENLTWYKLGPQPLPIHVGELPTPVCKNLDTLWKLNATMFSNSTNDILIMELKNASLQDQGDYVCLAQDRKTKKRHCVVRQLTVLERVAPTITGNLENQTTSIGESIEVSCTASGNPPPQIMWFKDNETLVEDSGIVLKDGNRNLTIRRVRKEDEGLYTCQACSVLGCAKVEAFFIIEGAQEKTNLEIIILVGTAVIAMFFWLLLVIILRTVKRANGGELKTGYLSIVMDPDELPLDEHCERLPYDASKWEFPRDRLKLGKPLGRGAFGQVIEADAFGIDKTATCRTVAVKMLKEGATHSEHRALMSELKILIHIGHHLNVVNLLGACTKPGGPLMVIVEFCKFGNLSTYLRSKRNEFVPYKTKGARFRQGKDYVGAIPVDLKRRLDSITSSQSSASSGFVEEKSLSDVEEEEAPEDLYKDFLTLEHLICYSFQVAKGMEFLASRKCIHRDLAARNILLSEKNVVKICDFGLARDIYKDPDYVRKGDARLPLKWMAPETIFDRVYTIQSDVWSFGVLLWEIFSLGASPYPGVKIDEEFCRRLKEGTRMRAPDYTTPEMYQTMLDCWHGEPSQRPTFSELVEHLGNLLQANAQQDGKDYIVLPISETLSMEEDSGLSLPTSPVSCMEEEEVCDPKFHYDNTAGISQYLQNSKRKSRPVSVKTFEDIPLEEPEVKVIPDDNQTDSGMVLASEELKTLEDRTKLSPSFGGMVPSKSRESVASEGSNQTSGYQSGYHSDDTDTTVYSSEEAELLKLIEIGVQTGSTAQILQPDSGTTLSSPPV

Consider `COc1ccc(-c2nc3cc(C(=O)NN=Cc4ccccc4O)ccc3[nH]2)cc1` [8h, N'-(2-Hydroxybenzylidene)-2-(4-methoxyphenyl)-1H-benzo[d]imidazole-5-carbohydrazide], for which the inhibition at 10 µM is greater than 100% in test [1]; 88.5% in test [2]; greater than 100% in [3]; greater than 100% in test [4]; greater than 100% in test [5]; greater than 100% in test [6]. Besides, the inhibition at 10 µM in test [7] was greater than 100%; in [8] it was greater than 100%; in test [9], greater than 100%; in test [10], 96.7%; in test [11], greater than 100%; in [12], 62.9 ± 3.89%. Moreover, the inhibition at 10 µM in [13] (setting [14]) and in test [13] (setting [15]) was greater than 100% each time. Further, the GI50 (in general, the concentration at which growth is held to half of that of the control) is 3.02 µM in [1]; 1.7 µM in [2]; 6.94 µM in test [3]; 3.65 µM in [4]; 4.93 µM in test [5]; 1.64 µM in test [6]. Besides, the concentration for 50% growth inhibition (GI50) in test [7] was found to be 4.99 µM; in [8] (HOP-92, Non-small cell lung cancer, five-dose), 2.83 µM; in test [9] it was 2.24 µM; in test [10], 4.23 µM; in test [11], 1.7 µM; in test [13], 2.98 µM.

Regarding `COc1ccc(-c2nc3cc(C(=O)NN=Cc4cccc(OC)c4)ccc3[nH]2)cc1` [8j, N'-(3-Methoxybenzylidene)-2-(4-methoxyphenyl)-1H-benzo[d]imidazole-5-carbohydrazide], the inhibition at 10 µM in [1] is greater than 100%; in test [2], 59.4%; in [3] it was 98.3%; in [4] it was 70.4%; in test [5], greater than 100%; in test [6], greater than 100%. For the same molecule, the inhibition at 10 µM is greater than 100% in test [8]; greater than 100% in test [9]; greater than 100% in [10]; 98.9% in [11]; 15.7 ± 1.41% in test [12]; 100% in [13] (setting [14]). For the same molecule, in test [13] (setting [15]), the inhibition at 10 µM was greater than 100%. Further, the GI50 was 4.25 µM in test [1]; 22.6 µM in test [2]; 2.13 µM in test [3]; 3.42 µM in [4]; 2.99 µM in test [5]; 2.18 µM in [6]. For the same molecule, the GI50 in test [7] came to 2.78 µM; in [9], 2.01 µM; in test [10] it was 3.03 µM; in test [11], 1.78 µM; in test [13] it was 5.24 µM.

Turning to `COc1ccc(-c2nc3cc(C(=O)NN=Cc4cccc(OC)c4O)ccc3[nH]2)cc1` [8k, N'-(2-Hydroxy-3-methoxybenzylidene)-2-(4-methoxyphenyl)-1H-benzo[d]imidazole-5-carbohydrazide], the inhibition at 10 µM is 87.7% in test [1]; greater than 100% in test [2]; 82.2% in test [3]; 91% in test [4]; greater than 100% in test [5]; 97.3% in test [6]. For the same molecule, the inhibition at 10 µM in [8] was 70.4%; in test [9] it was 86%; in test [10] it was 95.9%; in test [11], 83.2%; in [12], 69.5 ± 4.37%; in [13] (setting [14]) it was greater than 100%. For the same molecule, the inhibition at 10 µM in test [13] (setting [15]) was greater than 100%. Besides, the GI50 was found to be 4.19 µM in test [1]; 3.8 µM in test [2]; 3.14 µM in test [3]; 2.81 µM in test [4]; 2.9 µM in test [5]; 2.17 µM in [6]. In addition, the concentration for 50% growth inhibition (GI50) in test [7] was 3.81 µM; in [9] it was 3.26 µM; in test [10], 3.04 µM; in test [11], 3.34 µM; in test [13], 7.7 µM.

Take `COc1ccc(-c2nc3cc(C(=O)NN=Cc4ccc(OC)c(O)c4)ccc3[nH]2)cc1` [8l, N'-(3-Hydroxy-4-methoxybenzylidene)-2-(4-methoxyphenyl)-1H-benzo[d]imidazole-5-carbohydrazide]: the inhibition at 10 µM in [1] was less than 5%; in test [2], 78.6%; in test [3] it was 24.5%; in test [4], 63.5%; in [5], 43.8%; in test [6], 44.8%. The inhibition at 10 µM worked out at 27% in [7]; 17.4% in test [8]; 9.88% in test [9]; 24% in [10]; 9.13% in test [11]; 50.6 ± 5.29% in test [12]. Further, the inhibition at 10 µM in test [13] (setting [14]) and in test [13] (setting [15]) was 34.4% in each case.

For the origin of these results see PMC10893631, “Receptor-based pharmacophore modeling, molecular docking, synthesis and biological evaluation of novel VEGFR-2, FGFR-1, and BRAF multi-kinase inhibitors” (BMC Chemistry, 2024).
